Source: ChEMBL document CHEMBL1140893, “Cancer preventive agents. Part 8: Chemopreventive effects of stevioside and related compounds” (Bioorg Med Chem, 2009)

Experiments:
[1] = Inhibition of TPA-induced EBV-early antigen activation in human Raji cells after 48hrs by indirect immunofluorescence technique; type: cell-based, human gammaherpesvirus 4
[2] = Cytotoxicity against human Raji cells assessed as cell viability at 100 mol ratio by trypan blue staining; type: cell-based; conditions: read-out: Activity
Raji [3] = assay: Inhibition of TPA-induced EBV-early antigen activation in human Raji cells at 10 mol ratio after 48hrs by indirect immunofluorescence technique relative to control; type: cell-based; set-up: scale not given: the % may be the effect or the level left; conditions: human gammaherpesvirus 4
[4] = Cytotoxicity against human Raji cells assessed as cell viability at 500 mol ratio by trypan blue staining; type: cell-based; conditions: read-out: Activity
[5] = Cytotoxicity against human Raji cells assessed as cell viability at 10 mol ratio by trypan blue staining; type: cell-based; conditions: read-out: Activity
Raji [6] = assay: Inhibition of TPA-induced EBV-early antigen activation in human Raji cells at 500 mol ratio after 48hrs by indirect immunofluorescence technique relative to control; type: cell-based; set-up: scale not given: the % may be the effect or the level left; conditions: human gammaherpesvirus 4
[7] = Cytotoxicity against human Raji cells assessed as cell viability at 1000 mol ratio by trypan blue staining; type: cell-based; conditions: read-out: Activity
Raji [8] = assay: Inhibition of TPA-induced EBV-early antigen activation in human Raji cells at 1000 mol ratio after 48hrs by indirect immunofluorescence technique relative to control; type: cell-based; set-up: scale not given: the % may be the effect or the level left; conditions: human gammaherpesvirus 4
Mus musculus [9] = organism: Mus musculus; assay: Reduction in peroxynitrite-induced/TPA-promoted number of skin papillomas in Sencar mouse after 20 weeks; type: functional; set-up: scale not given: the % may be the effect or the level left
Raji [10] = assay: Inhibition of TPA-induced EBV-early antigen activation in human Raji cells at 100 mol ratio after 48hrs by indirect immunofluorescence technique relative to control; type: cell-based; set-up: scale not given: the % may be the effect or the level left; conditions: human gammaherpesvirus 4
Mus musculus [11] = assay: Inhibition of DMBA-induced/TPA-promoted carcinogenesis in mouse assessed as reduction in skin papillomas bearing mouse at 85 nmol administered 1 hr before TPA treatment measured after 20 weeks; type: functional, organism-based; set-up: Activity: scale not given: the % may be the effect or the level left
Mus musculus [12] = assay: Inhibition of DMBA-induced/TPA-promoted carcinogenesis in mouse assessed as reduction in skin papillomas bearing mouse at 85 nmol administered 1 hr before TPA treatment measured after 9 weeks; type: functional; set-up: scale not given: the % may be the effect or the level left
Mus musculus [13] = assay: Inhibition of peroxynitrite-induced/TPA-promoted carcinogenesis in Sencar mouse assessed as reduction in skin papillomas bearing mouse at 85 nmol administered 1 hr before TPA treatment measured after 11 weeks; type: functional; set-up: scale not given: the % may be the effect or the level left
Mus musculus [14] = assay: Inhibition of peroxynitrite-induced/TPA-promoted carcinogenesis in Sencar mouse assessed as number of skin papillomas per mouse at 85 nmol administered 1 hr before TPA treatment measured after 20 weeks; type: functional
Mus musculus [15] = assay: Inhibition of DMBA-induced/TPA-promoted carcinogenesis in mouse assessed as reduction in skin papillomas bearing mouse at 85 nmol administered 1 hr before TPA treatment measured after 15 weeks; type: functional; set-up: scale not given: the % may be the effect or the level left
Mus musculus [16] = assay: Inhibition of peroxynitrite-induced/TPA-promoted carcinogenesis in Sencar mouse assessed as number of skin papillomas per mouse at 85 nmol administered 1 hr before TPA treatment measured after 15 weeks; type: functional
Mus musculus [17] = assay: Inhibition of peroxynitrite-induced/TPA-promoted carcinogenesis in Sencar mouse assessed as reduction in skin papillomas bearing mouse at 85 nmol administered 1 hr before TPA treatment measured after 15 weeks; type: functional; set-up: scale not given: the % may be the effect or the level left
Mus musculus [18] = assay: Inhibition of peroxynitrite-induced/TPA-promoted carcinogenesis in Sencar mouse assessed as reduction in skin papillomas bearing mouse at 85 nmol administered 1 hr before TPA treatment measured after 20 weeks; type: functional; set-up: scale not given: the % may be the effect or the level left
Mus musculus [19] = assay: Inhibition of peroxynitrite-induced/TPA-promoted carcinogenesis in Sencar mouse assessed as number of skin papillomas per mouse at 85 nmol administered 1 hr before TPA treatment measured after 11 weeks; type: functional
Mus musculus [20] = assay: Inhibition of DMBA-induced/TPA-promoted carcinogenesis in mouse assessed as reduction in skin papillomas bearing mouse at 85 nmol administered 1 hr before TPA treatment measured after 10 weeks; type: functional; set-up: scale not given: the % may be the effect or the level left
Mus musculus [21] = assay: Inhibition of DMBA-induced/TPA-promoted carcinogenesis in mouse assessed as number of skin papillomas per mouse at 85 nmol administered 1 hr before TPA treatment measured after 20 weeks; type: functional
Mus musculus [22] = assay: Inhibition of DMBA-induced/TPA-promoted carcinogenesis in mouse assessed as number of skin papillomas per mouse at 85 nmol administered 1 hr before TPA treatment measured after 15 weeks; type: functional
Mus musculus [23] = assay: Inhibition of DMBA-induced/TPA-promoted carcinogenesis in mouse assessed as number of skin papillomas per mouse at 85 nmol administered 1 hr before TPA treatment measured after 10 weeks; type: functional
Mus musculus [24] = assay: Inhibition of peroxynitrite-induced/TPA-promoted carcinogenesis in Sencar mouse assessed as number of skin papillomas per mouse at 85 nmol administered 1 hr before TPA treatment measured after 10 weeks; type: functional
Mus musculus [25] = assay: Inhibition of peroxynitrite-induced/TPA-promoted carcinogenesis in Sencar mouse assessed as reduction in skin papillomas bearing mouse at 85 nmol administered 1 hr before TPA treatment measured after 10 weeks; type: functional; set-up: scale not given: the % may be the effect or the level left

Row | SMILES | IC50 [1] [mol ratio/32 pmol TPA] | viability at 100 mol ratio [2] [%] | Activity (Raji [3]) [%] | viability at 500 mol ratio [4] [%] | viability at 10 mol ratio [5] [%] | Activity (Raji [6]) [%] | viability at 1000 mol ratio [7] [%] | Activity (Raji [8]) [%] | Activity (Mus musculus [9]) [%] | Activity (Raji [10]) [%] | Activity (Mus musculus [11]) [%] | Activity (Mus musculus [14]) | Activity (Mus musculus [15]) [%] | Activity (Mus musculus [16]) | Activity (Mus musculus [17]) [%] | Activity (Mus musculus [18]) [%] | Activity (Mus musculus [20]) [%] | Activity (Mus musculus [21]) | Activity (Mus musculus [22]) | Activity (Mus musculus [23]) | further results
1 | COc1cc(/C=C/C(=O)CC(=O)/C=C/c2ccc(O)c(OC)c2)ccc1O [CURCUMIN] | 331 | > 80 | 100 | > 80 | > 80 | 22.8 | 60 | 0 | 45.1 | 81.7 | – | – | – | – | – | – | – | – | – | – | –
2 | C=C1C[C@@]23CC[C@H]4[C@@](C)(CCC[C@@]4(C)C(=O)O[C@@H]4O[C@H](CO)[C@@H](O)[C@H](O)[C@H]4O)[C@@H]2CC[C@]1(O[C@@H]1O[C@H](C)[C@@H](O)[C@H](O)[C@@H]1O[C@@H]1O[C@H](CO)[C@@H](O)[C@H](O)[C@H]1O)C3 [DULCOSIDE A] | – | – | 92.5 | – | – | 40.9 | – | 6.7 | – | 73 | – | – | – | – | – | – | – | – | – | – | –
3 | C=C1C[C@@]23CC[C@H]4[C@@](C)(CCC[C@@]4(C)C(=O)O[C@@H]4O[C@H](CO)[C@@H](O)[C@H](O)[C@H]4O)[C@@H]2CC[C@]1(O[C@@H]1O[C@H](CO)[C@@H](O)[C@H](O[C@@H]2O[C@H](CO)[C@@H](O)[C@H](O)[C@H]2O)[C@H]1O[C@@H]1O[C@H](CO)[C@@H](O)[C@H](O)[C@H]1O)C3 [REBAUDIOSIDE A] | – | > 80 | – | > 80 | > 80 | – | 60 | – | – | – | – | – | – | – | – | – | – | – | – | – | –
4 | C[C@@]12CC[C@@H]3[C@@](CC[C@H]4[C@@]3(C)CCC[C@@]4(C)C(=O)O)(CC1=O)C2 [ISOSTEVIOL] | 321 | > 80 | 90.6 | > 80 | > 80 | 34.2 | – | 1.9 | 46.2 | 73 | – | 4.3 | 60 | 2.7 | 53 | 73 | 20 | 5 | 3.6 | 1.8 | Activity % (Mus musculus [11]): 87%; Activity (Mus musculus [13]): 33%; Activity (Mus musculus [24]): 1.6
5 | C=C1C[C@@]23CC[C@H]4[C@@](C)(CCC[C@@]4(C)C(=O)O)[C@@H]2CC[C@]1(O)C3 [STEVIOL] | 340 | > 80 | 91.2 | > 80 | > 80 | 35.6 | 60 | 2.1 | 44.4 | 74.1 | 87 | 4.5 | 60 | 3.5 | 67 | 93 | 27 | 5.4 | 3.7 | 1.8 | Activity (Mus musculus [25]): 27%; Activity (Mus musculus [24]): 2.3
6 | C=C1C[C@@]23CC[C@H]4[C@@](C)(CCC[C@@]4(C)C(=O)O[C@@H]4O[C@H](CO)[C@@H](O)[C@H](O)[C@H]4O)[C@@H]2CC[C@]1(O[C@@H]1O[C@H](CO)[C@@H](O)[C@H](O[C@@H]2O[C@H](CO)[C@@H](O)[C@H](O)[C@H]2O)[C@H]1O[C@@H]1O[C@@H](C)[C@H](O)[C@@H](O)[C@H]1O)C3 [REBAUDIOSIDE C] | – | > 80 | – | > 80 | > 80 | – | 60 | – | – | – | – | – | – | – | – | – | – | – | – | – | –

Continued, in another order:

Row | IC50 [1] [mol ratio/32 pmol TPA] | SMILES | viability at 100 mol ratio [2] [%] | Activity (Raji [3]) [%] | viability at 500 mol ratio [4] [%] | viability at 10 mol ratio [5] [%] | Activity (Raji [6]) [%] | viability at 1000 mol ratio [7] [%] | Activity (Raji [8]) [%] | Activity (Mus musculus [9]) [%] | Activity (Raji [10]) [%] | Activity (Mus musculus [11]) [%] | Activity (Mus musculus [14]) | Activity (Mus musculus [15]) [%] | Activity (Mus musculus [16]) | Activity (Mus musculus [17]) [%] | Activity (Mus musculus [18]) [%] | Activity (Mus musculus [20]) [%] | Activity (Mus musculus [21]) | Activity (Mus musculus [22]) | Activity (Mus musculus [23]) | further results
7 | 360 | C=C1C[C@@]23CC[C@H]4[C@@](C)(CCC[C@@]4(C)C(=O)O[C@@H]4O[C@H](CO)[C@@H](O)[C@H](O)[C@H]4O)[C@@H]2CC[C@]1(O[C@@H]1O[C@H](CO)[C@@H](O)[C@H](O)[C@H]1O[C@@H]1O[C@H](CO)[C@@H](O)[C@H](O)[C@H]1O)C3 [STEVIOSIDE] | > 80 | 89.3 | > 80 | > 80 | 36.9 | – | 3.2 | 45 | 67.4 | 93 | 4.4 | 53 | 3 | 53 | 87 | – | – | – | – | Activity (Mus musculus [12]): 20%; Activity (Mus musculus [13]): 40%; Activity (Mus musculus [19]): 2
8 | 450 | C=C1C[C@@]23CC[C@H]4[C@@](C)(CCC[C@@]4(C)C(=O)O[C@@H]4O[C@H](CO)[C@@H](O)[C@H](O)[C@H]4O)[C@@H]2CC[C@]1(O[C@@H]1O[C@H](CO)[C@@H](O)[C@H](O)[C@H]1O)C3 [RUBUSOSIDE] | > 80 | 94.2 | > 80 | > 80 | 44.2 | 60 | 12.5 | – | 76.8 | – | – | – | – | – | – | – | – | – | – | –
9 | 381 | CC1(C)[C@@H](O[C@H]2O[C@H](C(=O)O)[C@@H](O)[C@H](O)[C@H]2O[C@@H]2O[C@H](C(=O)O)[C@@H](O)[C@H](O)[C@H]2O)CC[C@]2(C)[C@H]3C(=O)C=C4[C@@H]5C[C@@](C)(C(=O)O)CC[C@]5(C)CC[C@@]4(C)[C@]3(C)CC[C@@H]12 [GLYCYRRHIZIN] | > 80 | 100 | > 80 | > 80 | 36.9 | 60 | 12.5 | – | 69.2 | 94 | – | 60 | – | – | – | 50 | 6.2 | 4.6 | 2.8 | –
